Key:
[1] = test system: Thrombocyte aggregation induced by arachidonic acid; assay: Thrombocyte aggregation induced by arachidonic acid; type: cell-based, human; conditions: arachidonic acid 0.2 mmol
Experimental: (§1) The study of antiaggregant and anticoagulant properties of N,N′-substituted piperazines on the sample of donor human blood. The blood was collected by donor ulnar vein punction with dry sharp needle without syringe. The administration of drugs that influence on thrombocyte function was cancelled in 7÷10 days before the experiment.
(§2) In graduated plastic centrifuge tube 1 ml of 3.8% basic trisodium citrate solution with pH=7.4 was placed. The ulnar vein was punctuated, the freely effluent blood was collected up to 10 ml mark, the mixture was instantly stirred to prevent air bubbles appearance. The collected and stabilized blood was split in two 5 ml portions in two tubes.
(§3) To obtain thrombocyte enriched plasm the stabilized blood was spinned at 1000 rpm (150 g) for 8 min at room temperature. The repeated spinning of the blood at 3200 rpm (2300 g) for 20 min at 22° C. yielded thrombocyte depleted plasm.
The study of antiaggregant properties of N,N′-substituted piperazines with arachidonic acid (CHRONO-LOG, USA) as an inductor: to 450 l of thrombocyte plasm 50 l of N,N′-substituted piperazine solution was added, the mixture was incubated in the cuvette of CHRONO-LOG aggregometer for 15 min at 36° C. The concentration of arachidonic acid in the sample was 0.2 mmol, the concentrations of N,N′-substituted piperazines and comparison substance (aspirin) were 4÷5 mmol/L.
It was shown that N,N′-substituted piperazines have pronounced aspirin-like activity by inhibiting thrombocyte aggregation induced by arachidonic acid (table 5).

[2] = test system: ADP-induced thrombocyte aggregation; assay: ADP-induced thrombocyte aggregation, donor human thrombocyte enriched plasm; type: cell-based; conditions: ADP inductor; for MA, %: human thrombocyte plasm
Experimental: as §1, §2, §3
(§4) The study of anticoagulant activity was done within 2 h after thrombocyte enriched plasm obtaining. The plasm was normalized to achieve thrombocyte concentration of 200-250×10^9/L by addition of thrombocyte-free plasm. The concentration of thrombocytes was measured on SOLAR AR 2110 analyzer.
(§5) Antiaggregant properties of N,N′-substituted piperazines were evaluated by their influence on thrombocyte aggregation in tests with ADP-, collagen- and ristocetin-induced aggregation. To dissolve N,N′-substituted piperazines and to dilute reagents Tris-HCl-buffer with pH=7.4 was used.
(§6) As the general characteristic of thrombocyte aggregation activity the maximum amplitude (MA) of aggregation was taken on. That is the peak value of transmittance coefficient of the sample after aggregation agent introduction expressed in % relative to the transmittance of thrombocyte-free plasm. The response was registered on ascending linear segment of aggregation curve for 16 s.
(§7) The measurements were done using 4-channel CHRONO-LOG 490-4D analyzer (CHRONO-LOG, USA). The temperature in the cell was 37° C., the spinning speed of magnetic stirrer was 1200 rpm.
(§8) In a cuvette 0.5 ml of N,N′-substituted piperazine solution was placed, then 0.4 ml of normalized thrombocyte plasm was added. The mixture was stirred and incubated at 37° C. for 5 min. The cuvette was placed in aggregometer, then 0.05 ml of aggregation inductor solution was added (ADP or collagen or ristocetin). Thrombocyte aggregation was measured for 3 min.
ADP-induced reversible thrombocyte aggregation test utilized CHRONO-PAR ADP reagent (CHRONO-LOG, USA) with 10 mol concentration. Primary (reversible) thrombocyte aggregation was evaluated by the response on addition of ADP threshold dose (ADP concentration is 1 mol) to plasm.

[3] = test system: thrombocyte depleted plasm coagulation; assay: Activated partial thromboplastin time (APTT), anticoagulant properties; type: biochemical, human
Experimental: as §1, §2, §3
To study anticoagulant properties of N,N′-substituted piperazines activated partial thromboplastin time (APTT) was measured. That is the ability of N,N′-substituted piperazines to increase thrombocyte depleted plasm coagulation time compared to the ability of control sample. The set of reagents for APTT determination (Russian Scientific Research Institute of Hematology and Transfusiology Ministry of Health of Russian Federation by Technical Regulation 9398-214-01966456-99) and COAG-A-MATE® XM coagulometer (ORGANON TEKNIKA, USA) were used.
The solutions of N,N′-substituted piperazines were mixed with thrombocyte depleted plasm at 1:1 ratio, then 0.1 ml of APTT reagent was added, the mixture was incubated in the cuvette for 5 min at 37° C., then 0.1 ml of 0.277% CaCl2 solution was added. The time of coagulation (in seconds) was measured.

[4] = test system: Collagen-induced thrombocyte aggregation; assay: Collagen-induced thrombocyte aggregation, donor human thrombocyte enriched plasm; type: cell-based; conditions: collagen inductor; for MA, %: human thrombocyte plasm; for inhibition at 500 µM / inhibition at 1250 µM / inhibition at 2500 µM / inhibition at 5000 µM: Homo sapiens, read-out: (MA0-MAx): MA0 * 100%
Experimental: as §1, §2, §3, §4, §5, §6, §7, §8
In collagen-induced thrombocyte aggregation test CHRONO-PAR COLLAGEN reagent (CHRONO-LOG, USA) was diluted with buffer solution until collagen concentration reached 10 µg/ml.

[5] = test system: Ristocetin-induced thrombocyte aggregation; assay: Ristocetin-induced thrombocyte aggregation, donor human thrombocyte enriched plasm; type: cell-based; conditions: ristocetin inductor; for MA (60 c), %: amplitude at 60 s
Experimental: as §1, §2, §3, §4, §5, §6, §7, §8
To study ristocetin-induced thrombocyte aggregation CHRONO-PAR RISTOCETIN reagent (CHRONO-LOG, USA) was diluted with buffer solution until ristocetin concentration reached 12 mg/ml. Thrombocyte aggregation amplitude was measured in 60 s after the beginning of the reaction.

[6] = Homo sapiens, 0.2 mmol/L, read-out: (MA0-MAx): MA0 * 100%
[7] = Homo sapiens, 0.5 mmol/L, read-out: (MA0-MAx): MA0 * 100%
[8] = Homo sapiens, 1.25 mmol/L, read-out: (MA0-MAx): MA0 * 100%
[9] = Homo sapiens, 2.50 mmol/L, read-out: (MA0-MAx): MA0 * 100%
[10] = 1.7 mmol/L, thrombocyte depleted plasm
[11] = 2.5 mmol/L, thrombocyte depleted plasm
[12] = 4.1 mmol/L, thrombocyte depleted plasm
[13] = 8.3 mmol/L, thrombocyte depleted plasm

SMILES | MA ([1]; 4.5 mmol/L) | Max. rate for 16 sec ([1]; 4.5 mmol/L) | inhibition at 4500 µM ([1]; Homo sapiens, 4.5 mmol/L) | MA, % ([2]; 0.2 mmol/L) | MA, % ([2]; 0.5 mmol/L) | MA, % ([2]; 1.25 mmol/L) | MA, % ([2]; 2.50 mmol/L) | inhibition at 200 µM [2, 6] | inhibition at 500 µM [2, 7] | inhibition at 1250 µM [2, 8] | inhibition at 2500 µM [2, 9] | (APTTx-APTT0): APTT0 * 100% ([3]; 1.7 mmol/L) | APTT [3, 10] | (APTTx-APTT0): APTT0 * 100% ([3]; 2.5 mmol/L) | MA, % ([4]; 0.5 mmol/L) | MA, % ([4]; 1.25 mmol/L) | MA, % ([4]; 2.5 mmol/L) | inhibition at 500 µM ([4]; 0.5 mmol/L) | inhibition at 1250 µM ([4]; 1.25 mmol/L) | inhibition at 2500 µM ([4]; 2.5 mmol/L) | further results
CC(=O)Oc1ccccc1C(=O)O [Acetylsalicylic acid, reference compound] | – | – | – | – | – | – | – | – | – | – | – | – | – | – | – | – | – | – | – | – | MA ([1]; 5 mmol/L): 3; Max. rate for 16 sec ([1]; 5 mmol/L): 5; inhibition at 5000 µM ([1]; Homo sapiens, 5 mmol/L): 100%
COc1cc(C(=O)N2CCN(C(=N)N)CC2)cc(OC)c1OC.O=C(O)/C=C/C(=O)O [Example 1, 4-(3,4,5-trimethoxybenzoyl)piperazine-1-carboximidamide fumarate hemihydrate] | 33 | 20 | 60% | 6.4 ± 1.1% | 5.0 ± 1.1% | 4.1 ± 0.7% | 3.0 ± 12.1% | 53.3% | 63.5% | 70.1% | 78.1% | 12.2% | 50.4 ± 7.0 s | 40.1% | 70.0 ± 5.1% | 60.7 ± 7.7% | 18.4 ± 3.1% | 5.4% | 18.8% | 75.1% | MA, % ([2]; 5.0 mmol/L): 1.3 ± 0.5%; inhibition at 5000 µM ([2]; Homo sapiens, 5.0 mmol/L, read-out: (MA0-MAx): MA0 * 100%): 90.5%; APTT [3, 11]: 63.3 ± 5.7 s; (APTTx-APTT0): APTT0 * 100% ([3]; 4.1 mmol/L): 56.8%; APTT [3, 12]: 70.4 ± 5.2 s; (APTTx-APTT0): APTT0 * 100% ([3]; 8.3 mmol/L): 209.8%; APTT [3, 13]: 139.1 ± 9.5 s; MA, % ([4]; 5.0 mmol/L): 2.1 ± 0.4%; inhibition at 5000 µM ([4]; 5.0 mmol/L): 97.2%; (MAx-MA0): MA0 * 100% ([5]; 0.5 mmol/L): 1.8%; MA (60 c), % ([5]; 0.5 mmol/L): 70.0 ± 10.5%; (MAx-MA0): MA0 * 100% (Ozagrel: (MA0-MAx): MA0 * 100%) ([5]; 1.25 mmol/L): 12.9%; MA (60 c), % ([5]; 1.25 mmol/L): 62.1 ± 7.7%; (MAx-MA0): MA0 * 100% (Ozagrel: (MA0-MAx): MA0 * 100%) ([5]; 2.5 mmol/L): 22.7%; MA (60 c), % ([5]; 2.5 mmol/L): 55.1 ± 11.1%; (MAx-MA0): MA0 * 100% (Ozagrel: (MA0-MAx): MA0 * 100%) ([5]; 5.0 mmol/L): 53.3%; MA (60 c), % ([5]; 5.0 mmol/L): 33.3 ± 4.5%
COc1ccc(CN2CCN(C(=N)N)CC2)c(OC)c1OC [Example 7, 4-(2,3,4-trimethoxybenzyl)piperazine-1-carboximidamide monohydrate] | 72 | 49 | 35% | – | – | – | – | – | – | – | – | – | – | – | – | – | – | – | – | – | –
CCOc1ccc(CN2CCN(C(=N)N)CC2)c(OCC)c1OCC.Cl [Example 5, 4-(2,3,4-triethoxybenzyl)piperazine-1-carboximidamide hydrochloride] | – | – | – | 14.9 ± 2.0% | 11.5 ± 1.3% | 5.3 ± 2.2% | 1.9 ± 0.4% | 2.7% | 24.8% | 65.4% | 87.8% | −4.9% | 53.7 ± 7.0 s | 22.7% | 74.5 ± 4.3% | 63.7 ± 2.2% | 23.9 ± 0.3% | 5.3% | 19.1% | 69.8% | MA ([1]; 4.0 mmol/L): 2; Max. rate for 16 sec ([1]; 4.0 mmol/L): 1; inhibition at 4000 µM ([1]; Homo sapiens, 4.0 mmol/L): 100%; APTT, sec [3, 11]: 69.2 ± 5.9- sec; (APTTx-APTT0): APTT0 * 100% ([3]; 4.1 mmol/L): 35.6%; APTT [3, 12]: 76.5 ± 9.8 s; (APTTx-APTT0): APTT0 * 100% ([3]; 6.3 mmol/L): 75.4%; APTT ([3]; 6.3 mmol/L, thrombocyte depleted plasm): 98.9 ± 9.9 s; APTT [3, 13]: >150 s
Cl.N=C(N)N1CCN(S(=O)(=O)c2cc(Cl)c(Cl)cc2Cl)CC1 [Example 13, 4-(2,4,5-trichlorophenylsulfonyl)piperazine-1-carboximidamide hydrochloride] | – | – | – | 14.0 ± 3.9% | 10.3 ± 1.3% | 4.7 ± 2.1% | 1.4 ± 0.2% | 10.8% | 34.4% | 70.1% | 91.1% | – | – | – | 72.1 ± 6.3% | 62.0 ± 9.8% | 55.0 ± 9.2% | 7.2% | 20.2% | 29.2% | MA ([1]; 4.0 mmol/L): 2; Max. rate for 16 sec ([1]; 4.0 mmol/L): 1; inhibition at 4000 µM ([1]; Homo sapiens, 4.0 mmol/L): 100%; MA, % ([4]; 5.0 mmol/L): 48.7 ± 7.1%; inhibition at 5000 µM ([4]; 5.0 mmol/L): 37.3%; (MAx-MA0): MA0 * 100% ([5]; 0.2 mmol/L): 1.8%; MA (60 c), % ([5]; 0.2 mmol/L): 60.1 ± 8.1%; (MAx-MA0): MA0 * 100% ([5]; 0.5 mmol/L): 22.5%; MA (60 c), % ([5]; 0.5 mmol/L): 48.2 ± 7.5%; (MAx-MA0): MA0 * 100% (Ozagrel: (MA0-MAx): MA0 * 100%) ([5]; 1.25 mmol/L): 30.9%; MA (60 c), % ([5]; 1.25 mmol/L): 43.0 ± 4.8%; (MAx-MA0): MA0 * 100% (Ozagrel: (MA0-MAx): MA0 * 100%) ([5]; 2.5 mmol/L): 43.4%; MA (60 c), % ([5]; 2.5 mmol/L): 35.2 ± 7.6%; (MAx-MA0): MA0 * 100% (Ozagrel: (MA0-MAx): MA0 * 100%) ([5]; 5.0 mmol/L): 48.4%; MA (60 c), % ([5]; 5.0 mmol/L): 32.1 ± 5.5%
